Data on 14 compounds can be found in PubChem BioAssay (NCI).

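1) Cells in 96-well plates. 2) Compound, 48 h, 5 concentrations. 3) Linear interpolation between surrounding doses. 4) Unreached endpoint = highest concentration. GI50 is the concentration that inhibits growth by half. TGI denotes the concentration required for complete inhibition of growth.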

Some test systems named below: SW-620 colon; SF-539 CNS; A549 NSCLC; ACHN renal; MDA-MB-231 breast; BT-549 breast; LOX IMVI melanoma; MCF7 breast; UACC-62 melanoma; SNB-19 CNS; OVCAR-5 ovarian; EKVX NSCLC; MDA-MB-435; DMS 273 small cell lung.
Holding throughout (test): DTP human tumour cell line panel, 48 h

For `O=C(O)c1ccccc1CN1CCCC(C(=O)O)C1` (stereo unspecified), the TGI with SW-620 colon, with SF-539 CNS, in the experiment on A549 NSCLC, in the experiment on ACHN renal, with MDA-MB-231 breast and with BT-549 breast was greater than 100 µM in each case. The TGI in the experiment on LOX IMVI melanoma, in the experiment with MCF7 breast, in the experiment on UACC-62 melanoma, with SNB-19 CNS, in the experiment on OVCAR-5 ovarian and with EKVX NSCLC was greater than 100 µM each time. In the experiment with MDA-MB-435, this compound gave a TGI greater than 100 µM.
On to `CC(C)(C)[Si](C)(C)OCC1OC(n2cnc3c(N)ncnc32)C2OC(=S)OC12` (stereo unspecified), for which the TGI is greater than 100 µM in the experiment on SW-620 colon; greater than 100 µM in the experiment on MDA-MB-231 breast; 74.7 µM in the experiment with BT-549 breast; greater than 100 µM in the experiment with LOX IMVI melanoma; 93.4 µM in the experiment on MCF7 breast; 77.8 µM in the experiment with UACC-62 melanoma. Moreover, the figures for the TGI in the experiment with SNB-19 CNS, with OVCAR-5 ovarian and with MDA-MB-435 were greater than 100 µM, 86.6 µM and 48.3 µM, respectively.
`Nc1ccccc1N`: the TGI in the experiment on SW-620 colon, in the experiment on SF-539 CNS, in the experiment with A549 NSCLC, in the experiment on ACHN renal, in the experiment with LOX IMVI melanoma and with DMS 273 small cell lung was greater than 100 µM throughout. Also, the TGI in the experiment with UACC-62 melanoma, with SNB-19 CNS and with OVCAR-5 ovarian was greater than 100 µM each time.
In the case of `CCOc1ccc(/C=C2\N=C(c3ccccc3)OC2=O)cc1`, the TGI in the experiment on SW-620 colon, in the experiment on SF-539 CNS, in the experiment with A549 NSCLC, in the experiment on ACHN renal, in the experiment on BT-549 breast and with MCF7 breast was greater than 100 µM in each case. The TGI in the experiment on UACC-62 melanoma, with SNB-19 CNS, in the experiment on OVCAR-5 ovarian, with EKVX NSCLC and in the experiment on MDA-MB-435 was greater than 100 µM each time.
Regarding `NCCCCCC(CCN)SCC1OC(n2cnc3c(N)ncnc32)C(O)C1O` (stereo unspecified), the TGI in the experiment on SW-620 colon was greater than 1500 µM; in the experiment with SF-539 CNS, greater than 1240 µM; with A549 NSCLC it was greater than 1500 µM; in the experiment with LOX IMVI melanoma it was greater than 1500 µM; with DMS 273 small cell lung, greater than 1090 µM; with MCF7 breast, greater than 1500 µM. Besides, the TGI with UACC-62 melanoma, in the experiment on SNB-19 CNS, in the experiment on OVCAR-5 ovarian and with EKVX NSCLC was greater than 1500 µM each time.
Turning to `Cc1cccc2cc(/C=C/C(=O)/C=C/c3ccc(Cl)cc3)c(=O)[nH]c12`, the GI50 with SW-620 colon is 2.98 µM; with SF-539 CNS, greater than 100 µM; in the experiment with MDA-MB-231 breast, 3.71 µM; in the experiment on OVCAR-5 ovarian, greater than 100 µM; in the experiment on EKVX NSCLC, greater than 100 µM. The TGI in the experiment on SW-620 colon, in the experiment on SF-539 CNS, with MDA-MB-231 breast, in the experiment on OVCAR-5 ovarian and in the experiment on EKVX NSCLC was greater than 100 µM in each case.
Turning to `COc1ccc(-c2cc(N3CCN(c4ccc(Cl)cc4)CC3)c(C#N)c(=O)o2)cc1`, the TGI in the experiment with SW-620 colon is greater than 100 µM; with SF-539 CNS, 14.6 µM; in the experiment on A549 NSCLC, 32.3 µM; in the experiment on ACHN renal it was 35.2 µM; in the experiment with LOX IMVI melanoma it was greater than 100 µM; in the experiment with DMS 273 small cell lung, 34.4 µM. In addition, the TGI was 23.8 µM in the experiment on SNB-19 CNS, greater than 100 µM in the experiment on OVCAR-5 ovarian and 41.7 µM in the experiment on EKVX NSCLC.
As to `CN1C2CCC1/C(=C/c1cccc3c1OCO3)C(=O)/C2=C\c1cccc2c1OCO2`, the TGI in the experiment with SW-620 colon is greater than 100 µM; with ACHN renal, greater than 100 µM; in the experiment on LOX IMVI melanoma, greater than 100 µM; in the experiment with DMS 273 small cell lung, greater than 100 µM; with UACC-62 melanoma, 91.4 µM; in the experiment with OVCAR-5 ovarian it was greater than 100 µM. In the experiment with EKVX NSCLC, this compound came in with a TGI greater than 100 µM.
`COC(=O)/C=C1\SC2(OC1=Nc1ccccc1)C1CC3CC(C1)CC2C3` (stereo unspecified): the TGI in the experiment with SW-620 colon, in the experiment on SF-539 CNS, with A549 NSCLC, in the experiment on ACHN renal, in the experiment on MDA-MB-231 breast and with BT-549 breast was greater than 100 µM throughout. Further, the TGI in the experiment on LOX IMVI melanoma, with MCF7 breast, with UACC-62 melanoma, with SNB-19 CNS, in the experiment with OVCAR-5 ovarian and with EKVX NSCLC was greater than 100 µM throughout. Further, in the experiment with MDA-MB-435, the TGI is greater than 100 µM.
`CCOC(=O)CC1=N/C(=N/C(=N)N[N+](=O)[O-])SC1`: the TGI in the experiment on SW-620 colon, in the experiment with SF-539 CNS, in the experiment on A549 NSCLC, with ACHN renal, with LOX IMVI melanoma and in the experiment with DMS 273 small cell lung was greater than 100 µM each time. For the same compound, the TGI with UACC-62 melanoma, in the experiment on SNB-19 CNS, with OVCAR-5 ovarian and in the experiment with EKVX NSCLC was greater than 100 µM each time.
With `Fc1ccc(Nc2nc(Cl)c3[nH]cnc3n2)cc1Cl`, the TGI with SW-620 colon, in the experiment with SF-539 CNS, in the experiment with A549 NSCLC, in the experiment with ACHN renal, in the experiment with MDA-MB-231 breast and in the experiment on BT-549 breast was greater than 100 µM each time. The TGI in the experiment on LOX IMVI melanoma, in the experiment with MCF7 breast, in the experiment with UACC-62 melanoma, with SNB-19 CNS, in the experiment with OVCAR-5 ovarian and with EKVX NSCLC was greater than 100 µM each time. In the experiment on MDA-MB-435, this compound showed a TGI greater than 100 µM.
In the case of `NC(Cc1ccc(CP(=O)(O)O)cc1)C(=O)O` (stereo unspecified), the concentration for total growth inhibition (TGI) in the experiment on SW-620 colon, with SF-539 CNS, in the experiment with A549 NSCLC, with ACHN renal, with MDA-MB-231 breast and in the experiment on LOX IMVI melanoma was greater than 100 µM each time. Besides, the TGI with MCF7 breast, with UACC-62 melanoma, in the experiment on SNB-19 CNS, with OVCAR-5 ovarian, in the experiment with EKVX NSCLC and with MDA-MB-435 was greater than 100 µM in each case.
Take `C/C(=N/NC(=O)c1ccncc1)C(F)(F)F`: the TGI in the experiment with BT-549 breast, in the experiment on MCF7 breast, in the experiment on UACC-62 melanoma, in the experiment with SNB-19 CNS, with OVCAR-5 ovarian and in the experiment on MDA-MB-435 was greater than 100 µM throughout.
Turning to `C=C=C[P+](c1ccccc1)(c1ccccc1)c1ccccc1`, the TGI in the experiment on SF-539 CNS is 40.2 µM; in the experiment on A549 NSCLC, greater than 100 µM; with ACHN renal it was greater than 100 µM; in the experiment on DMS 273 small cell lung it was 54.8 µM.
